Experimental data: publication PMC11579512, “Deoxybouvardin-glucoside induces apoptosis in non-small cell lung cancer cells by targeting EGFR/MET and AKT signaling pathway” (EXCLI Journal, 2024)
Like-named read-outs stand apart in the source and are kept apart here.

Columns and labels:
HCC827 cells [1] = experiment: Annexin V/7-AAD apoptosis, HCC827; type: cell-based, human; design: Early apoptosis / Total apopt / Dead / Live: unit not given here; conditions: HCC827, DBG 12 nM
Method: HaCaT cells were grown in DMEM, whereas HCC827 and HCC827GR cells were grown in RPMI 1640. All culture media were supplemented with FBS (10 %) and P/S (1 %), and the cells were grown at 37 °C in 5 % CO2.
Apoptosis was measured using a Muse™ Annexin V & Dead Cell Kit (MCH100105, Merck Millipore). The fluorescent signal was analyzed with a Muse™ Cell Analyzer.

HCC827 cells [2] = system: HCC827 cells
Method: (§1) All culture media were supplemented with FBS (10 %) and P/S (1 %), and the cells were grown at 37 °C in 5 % CO2.
(§2) The cells were treated with MTT and incubated for 2 h. The supernatants were removed, and the remaining formazan crystals were dissolved in DMSO before absorbance measurement at 570 nm using a Multiscan GO spectrophotometer (Thermo Fisher Scientific, Vantaa, Finland).

HaCaT cells = system: HaCaT cells
Method: as §1, §2

HCC827GR cells = system: HCC827GR cells
Method: as §1, §2

Structure (SMILES): COc1ccc(C[C@H]2C(=O)N[C@@H](C)C(=O)N(C)[C@H]3Cc4ccc(cc4)Oc4cc(ccc4O[C@@H]4O[C@H](CO)[C@@H](O)[C@H](O)[C@H]4O)C[C@@H](C(=O)N[C@H](C)C(=O)N[C@@H](C)C(=O)N2C)N(C)C3=O)cc1 [DBG, deoxybouvardin glucoside]
- Early apoptosis (HCC827 cells [1]; replicate 2): 19.25
- Late apoptosis/Dead (HCC827 cells [1]; replicate 2): 25.30
- Live (HCC827 cells [1]; replicate 2): 51.30
- Total apopt (HCC827 cells [1]; replicate 2): 44.55
- Dead (HCC827 cells [1]; replicate 3): 5.35
- Early apoptosis (HCC827 cells [1]; replicate 3): 20.00
- Late apoptosis/Dead (HCC827 cells [1]; replicate 3): 26.10
- Live (HCC827 cells [1]; replicate 3): 48.55
- Total apopt (HCC827 cells [1]; replicate 3): 46.10
- cell viability (HCC827 cells [2]; 24 h, DBG 3 nM, replicate 1): 86.91%
- cell viability (HCC827 cells [2]; 24 h, DBG 3 nM, replicate 2): 83.02%
- cell viability (HCC827 cells [2]; 24 h, DBG 3 nM, replicate 3): 81.91%
- cell viability (HCC827 cells [2]; 24 h, DBG 6 nM, replicate 1): 73.81%
- cell viability (HCC827 cells [2]; 24 h, DBG 6 nM, replicate 2): 74.94%
- cell viability (HCC827 cells [2]; 24 h, DBG 6 nM, replicate 3): 75.18%
- cell viability (HCC827 cells [2]; 24 h, DBG 12 nM, replicate 1): 63.61%
- cell viability (HCC827 cells [2]; 24 h, DBG 12 nM, replicate 2): 64.36%
- cell viability (HCC827 cells [2]; 24 h, DBG 12 nM, replicate 3): 66.17%
- IC50 (HCC827 cells [2]; 48 h): 8.6 nM
- cell viability (HCC827 cells [2]; 48 h, DBG 3 nM, replicate 1): 82.82%
- cell viability (HCC827 cells [2]; 48 h, DBG 3 nM, replicate 2): 81.25%
- cell viability (HCC827 cells [2]; 48 h, DBG 3 nM, replicate 3): 79.60%
- cell viability (HCC827 cells [2]; 48 h, DBG 6 nM, replicate 1): 60.78%
- cell viability (HCC827 cells [2]; 48 h, DBG 6 nM, replicate 2): 58.53%
- cell viability (HCC827 cells [2]; 48 h, DBG 6 nM, replicate 3): 60.97%
- cell viability (HCC827 cells [2]; 48 h, DBG 12 nM, replicate 1): 37.02%
- cell viability (HCC827 cells [2]; 48 h, DBG 12 nM, replicate 2): 36.88%
- cell viability (HCC827 cells [2]; 48 h, DBG 12 nM, replicate 3): 36.42%
- viability, in words (HCC827 cells [2]; DBG 3, 6, 12 nM): suppressed the viability
- cell viability (HaCaT cells; 24 h, DBG 3 nM, replicate 1): 103.33%
- cell viability (HaCaT cells; 24 h, DBG 3 nM, replicate 2): 102.45%
- cell viability (HaCaT cells; 24 h, DBG 3 nM, replicate 3): 101.31%
- cell viability (HaCaT cells; 24 h, DBG 6 nM, replicate 1): 101.02%
- cell viability (HaCaT cells; 24 h, DBG 6 nM, replicate 2): 102.90%
- cell viability (HaCaT cells; 24 h, DBG 6 nM, replicate 3): 101.77%
- cell viability (HaCaT cells; 24 h, DBG 12 nM, replicate 1): 101.52%
- cell viability (HaCaT cells; 24 h, DBG 12 nM, replicate 2): 102.50%
- cell viability (HaCaT cells; 24 h, DBG 12 nM, replicate 3): 100.11%
- cell viability (HaCaT cells; 48 h, DBG 3 nM, replicate 1): 101.48%
- cell viability (HaCaT cells; 48 h, DBG 3 nM, replicate 2): 104.66%
- cell viability (HaCaT cells; 48 h, DBG 3 nM, replicate 3): 100.09%
- cell viability (HaCaT cells; 48 h, DBG 6 nM, replicate 1): 97.99%
- cell viability (HaCaT cells; 48 h, DBG 6 nM, replicate 2): 98.42%
- cell viability (HaCaT cells; 48 h, DBG 6 nM, replicate 3): 101.29%
- cell viability (HaCaT cells; 48 h, DBG 12 nM, replicate 1): 98.16%
- cell viability (HaCaT cells; 48 h, DBG 12 nM, replicate 2): 94.89%
- cell viability (HaCaT cells; 48 h, DBG 12 nM, replicate 3): 94.68%
- viability, in words (HaCaT cells; DBG 3, 6, 12 nM): did not affect
- cell viability (HCC827GR cells; 24 h, DBG 3 nM, replicate 1): 88.10%
- cell viability (HCC827GR cells; 24 h, DBG 3 nM, replicate 2): 92.63%
- cell viability (HCC827GR cells; 24 h, DBG 3 nM, replicate 3): 91.95%
- cell viability (HCC827GR cells; 24 h, DBG 6 nM, replicate 1): 81.14%
- cell viability (HCC827GR cells; 24 h, DBG 6 nM, replicate 2): 86.21%
- cell viability (HCC827GR cells; 24 h, DBG 6 nM, replicate 3): 84.35%
- cell viability (HCC827GR cells; 24 h, DBG 12 nM, replicate 1): 77.73%
- cell viability (HCC827GR cells; 24 h, DBG 12 nM, replicate 2): 74.83%
- cell viability (HCC827GR cells; 24 h, DBG 12 nM, replicate 3): 73.57%
- IC50 (HCC827GR cells; 48 h): 8.65 nM
- cell viability (HCC827GR cells; 48 h, DBG 3 nM, replicate 1): 81.02%
- cell viability (HCC827GR cells; 48 h, DBG 3 nM, replicate 2): 78.86%
- cell viability (HCC827GR cells; 48 h, DBG 3 nM, replicate 3): 79.86%
- cell viability (HCC827GR cells; 48 h, DBG 6 nM, replicate 1): 59.60%
- cell viability (HCC827GR cells; 48 h, DBG 6 nM, replicate 2): 58.31%
- cell viability (HCC827GR cells; 48 h, DBG 6 nM, replicate 3): 59.16%
- cell viability (HCC827GR cells; 48 h, DBG 12 nM, replicate 1): 38.12%
- cell viability (HCC827GR cells; 48 h, DBG 12 nM, replicate 2): 38.18%
- cell viability (HCC827GR cells; 48 h, DBG 12 nM, replicate 3): 39.51%
- viability, in words (HCC827GR cells; DBG 3, 6, 12 nM): suppressed the viability
